The text below walks through data of publication PMC7176929, “Meroterpenoids With Protein Tyrosine Phosphatase 1B Inhibitory Activities From the Fruiting Bodies of Ganoderma ahmadii” (Frontiers in Chemistry, 2020).

As a reminder, the IC50 is the concentration that gives 50% inhibition.

For the assay, the target named is T1, recombinant PTP1B catalytic domain (Homo sapiens, UniProt P18031).
T1 construct: made in house
T1 sequence (P18031 3-277 limits assumed): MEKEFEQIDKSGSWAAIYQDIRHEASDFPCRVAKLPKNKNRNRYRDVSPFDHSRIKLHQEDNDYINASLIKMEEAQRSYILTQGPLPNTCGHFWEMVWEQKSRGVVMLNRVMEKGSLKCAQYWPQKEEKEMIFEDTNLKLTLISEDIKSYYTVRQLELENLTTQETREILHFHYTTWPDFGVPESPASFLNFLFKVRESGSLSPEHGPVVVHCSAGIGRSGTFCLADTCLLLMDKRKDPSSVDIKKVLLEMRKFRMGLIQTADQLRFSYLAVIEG
In words: PTP1B inhibition assay (pNPP substrate). The class given is biochemical. The settings on record: pNPP as substrate, absorbance at 405 nm, 37 °C; read-out: IC50, inhibitory activity against PTP1B. Here is the method:
The expressed and purified methods of recombinant PTP1B catalytic domain were the same as references (Liu et al., [2018]). The dephosphorylation of p-nitrophenyl phosphate (pNPP) generated the product pNP, which can be monitored at an absorbance for 405 nm. The compounds were pre-incubated with the enzyme at 37 °C for 5 min. […] After incubation at 37°C for 15 min, the reaction was […] using 0.5 M pNPP (12.5 μL). After initializing the enzymatic reaction, the plate was then read every 20 s for 15 min in the microplate reader at 405 nm. […] The equation used was: [(Ablank-Asample)/Ablank] × 100%. The IC50 values were determined by linear or non-linear regression analysis of the concentration-response data curve.
In the case of `CC(=O)OCC(CC/C=C(\C)COC(=O)/C=C/c1ccc(O)cc1)CCC/C(=C/C(=O)c1cc(O)ccc1O)C(=O)O` (stereo not shown) [Compound 4, Ganoduriporol I], the IC50 worked out at 23 µM.

As for `C/C(=C\CCC(CO)CCC/C(=C/C(=O)c1cc(O)ccc1O)C(=O)O)COC(=O)/C=C/c1ccc(O)c(O)c1` (stereo not shown) [Compound 2, Ganoduriporol G], the IC50 was found to be 20 µM.

For the molecule `CC(=O)OCC(CC/C=C(/CC(=O)c1cc(O)ccc1O)C(=O)O)CC/C=C(\C)COC(=O)/C=C/c1ccc(O)cc1` (stereo not shown) [Compound 3, Ganoduriporol H], the concentration for half-maximal inhibition (IC50) was determined as 19 µM.

Consider `C/C(=C\CC/C(=C/CC/C(=C/C(=O)c1cc(O)ccc1O)C(=O)O)CO)COC(=O)/C=C/c1ccc(O)cc1` [Compound 1, Ganoduriporol F], for which the IC50 was 17 µM.
